In ChEMBL document CHEMBL1201862, “PubChem BioAssay data set” (2004):
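Grown in 96-well plates, cells were treated for 48 hours with each compound at five concentrations. Insufficient inhibition: endpoint recorded as highest concentration tested. Abbreviation: GI50, concentration required for 50% inhibition of growth.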 The source made the active and inactive calls. Cut-off read from the data, not from the text of the source: active = GI50 up to about 1.1 µM and inactive = higher.

Legend:
Test in all cases: NCI anticancer screen, dose series, 48 h
NCI-H226 = tested on: NCI-H226
HCT-15 = tested on: HCT-15
SK-MEL-5 = tested on: SK-MEL-5
UO-31 = tested on: UO-31
KM12 = tested on: KM12
HT-29 = tested on: HT-29
SW-620 = tested on: SW-620
OVCAR-8 = tested on: OVCAR-8
OVCAR-5 = tested on: OVCAR-5
COLO 205 = tested on: COLO 205
SF-268 = tested on: SF-268
OVCAR-4 = tested on: OVCAR-4
EKVX = tested on: EKVX
SF-539 = tested on: SF-539
NCI-H522 = tested on: NCI-H522
MOLT-4 = tested on: MOLT-4
HCT-116 = tested on: HCT-116
TK-10 = tested on: TK-10
ACHN = tested on: ACHN
Malme-3M = tested on: Malme-3M

Measured: GI50

C=C1CC(OC)(C(OC)C(=O)N(C)[C@H]2OCO[C@H]3C2O[C@H](C[C@@H](COC)OC)C(C)(C)C3OC)O[C@H](C)[C@@H]1C (some centres undefined)
inactive: NCI-H226 6.19 µM | SK-MEL-5 > 9.16 µM | UO-31 15.7 µM | KM12 5.33 µM | HT-29 5.77 µM | SW-620 14 µM | OVCAR-8 8.43 µM | OVCAR-5 26.7 µM | COLO 205 8.97 µM | SF-268 4.6 µM | OVCAR-4 3.61 µM | EKVX 17 µM | SF-539 14.2 µM | NCI-H522 11.5 µM | MOLT-4 7.18 µM | HCT-116 9.44 µM
18 µM: HCT-15

CCC1CN2CCc3cc(OC)c(OC)cc3C2CC1CC1c2cc(OC)c(OC)cc2CCN1C(=O)C(N)Cc1ccccc1.[O-][Cl+3]([O-])([O-])O (centres undefined)
1.72 µM: HCT-15
inactive: SK-MEL-5 2.12 µM | TK-10 2.75 µM | UO-31 2.13 µM | KM12 1.77 µM | OVCAR-8 1.97 µM | ACHN 2.88 µM | OVCAR-5 3.08 µM | Malme-3M 2.77 µM | SF-268 3.37 µM | EKVX 1.26 µM | SF-539 2.56 µM
active: HT-29 0.486 µM | SW-620 0.49 µM | NCI-H522 0.385 µM | MOLT-4 0.239 µM | HCT-116 0.305 µM

CCOC(=O)c1csc(NC(=O)C(C)N2CCOCC2)n1 (centres undefined)
> 100 µM: HCT-15
inactive: SK-MEL-5 > 100 µM | TK-10 > 100 µM | UO-31 > 100 µM | KM12 > 100 µM | HT-29 > 100 µM | SW-620 > 100 µM | OVCAR-8 > 100 µM | ACHN > 100 µM | OVCAR-5 > 100 µM | COLO 205 > 100 µM | Malme-3M > 100 µM | OVCAR-4 > 100 µM | EKVX > 100 µM | SF-539 > 100 µM | MOLT-4 > 100 µM

CO/N=C1/c2sccc2[C@H](NC(=O)C(Cc2ccccc2)NC(=O)OC(C)(C)C)[C@@H]1O (some centres undefined)
inactive: NCI-H226 > 100 µM | SK-MEL-5 > 100 µM | TK-10 > 100 µM | UO-31 51.4 µM | HT-29 > 100 µM | SW-620 > 100 µM | OVCAR-8 > 100 µM | OVCAR-5 > 100 µM | COLO 205 > 100 µM | Malme-3M > 100 µM | SF-268 > 100 µM | OVCAR-4 45.6 µM | EKVX > 100 µM | SF-539 > 100 µM | MOLT-4 93.3 µM | HCT-116 > 100 µM
> 100 µM: HCT-15

CC(C)(CO)NC(=O)c1cccc(C(=O)NC(C)(C)CO)c1Br
> 100 µM: HCT-15
inactive: NCI-H226 > 100 µM | SK-MEL-5 > 100 µM | TK-10 > 100 µM | UO-31 > 100 µM | KM12 > 100 µM | HT-29 > 100 µM | SW-620 > 100 µM | OVCAR-8 > 100 µM | ACHN > 100 µM | OVCAR-5 > 100 µM | COLO 205 > 100 µM | Malme-3M > 100 µM | SF-268 > 100 µM | OVCAR-4 > 100 µM | EKVX > 100 µM | SF-539 > 100 µM | MOLT-4 > 100 µM | HCT-116 > 100 µM

CC1(C)O[C@H]2OC(CO)C(OS(C)(=O)=O)[C@H]2O1 (some centres undefined)
inactive: SK-MEL-5 > 100 µM | TK-10 > 100 µM | UO-31 > 100 µM | KM12 > 100 µM | HT-29 > 100 µM | SW-620 > 100 µM | OVCAR-8 > 100 µM | ACHN > 100 µM | OVCAR-5 > 100 µM | COLO 205 > 100 µM | Malme-3M > 100 µM | SF-268 > 100 µM | OVCAR-4 > 10 µM | EKVX > 100 µM | SF-539 > 100 µM | NCI-H522 48.1 µM | HCT-116 > 100 µM
> 100 µM: HCT-15
